Source: PMC3460366, “Synthesis and Antibacterial Evaluation of a New Series of N-Alkyl-2-alkynyl/(E)-alkenyl-4-(1H)-quinolones” (Molecules, 2012)
pIC50: −log10 of the molar value. ≈ marks a conversion by molar mass, not a printed value. Where “and” joins values, the source holds several entries; their conditions need not be identical. Equal entries are not always repeated.

How the values were obtained:
[1] = test system: human diploid embryonic lung cell line MRC-5; assay: XTT cytotoxicity assay on MRC-5 cells; format: cell-based; settings: for Metabolic active MRC-5 cells (%): XTT
Method: In order to assess the cytotoxicity of these novel quinolone derivatives, the effect on the viability of a human lung fibroblast cell line MRC-5, was measured using XTT proliferation assay. […] In addition, the position of the triple bond in the side chain seems to have a significant influence on cytotoxcity which is increased in compounds with a triple bond more distant to the quinolone nucleus. This can be concluded by comparing results of 8l, 8n, 8p, and 8r having similar antimycobacterial activity on M. smegmatis but different cytotoxcity depending on triple bond position.
The cytotoxic activity of the synthetic compounds was determined by means of an XTT Cell Proliferation Kit II (Roche Diagnostics, Mannheim, Germany) using the human diploid embryonic lung cell line MRC-5 [11]. The quinolone derivatives were tested at concentrations of 100, 60, 30 and 10 µM in triplicate and the percentage of viable cells at each concentration was determined by comparing with the control.

M. phlei (ATCC 11758) = assay: Broth dilution MIC against M. phlei; format: cell-based; settings: Mycolicibacterium phlei, ATCC11758, 72 h
[2] = test system: M. smegmatis (ATCC 14468); assay: Microtiter broth dilution MIC against M. smegmatis (ATCC 14468); format: cell-based; settings: Mycolicibacterium smegmatis, ATCC14468, 72 h, 37 °C, MTT
M. smegmatis mc^2155 = assay: Broth dilution MIC against M. smegmatis mc^2155; format: cell-based; settings: Mycolicibacterium smegmatis, 72 h
M. fortuitum (ATCC 6841) = assay: Broth dilution MIC against M. fortuitum; format: cell-based; settings: Mycolicibacterium fortuitum, ATCC6841, 72 h
[3] = target: T1, M. tuberculosis MurE ligase (Mycobacterium tuberculosis, UniProt P9WJL3); assay: M. tuberculosis MurE inhibition assay (phosphate colorimetric detection); format: biochemical; settings: tested at 1000, 300, 100 and 30 µM; IC50 from plot of percent inhibition vs. concentration; read-out: IC50 Mtb MurE
T1 construct: made in house; host or cells: E. coli BL21(DE3)pLysS

S. aureus EMRSA-15 = assay: Broth dilution MIC against EMRSA-15; format: cell-based; settings: Staphylococcus aureus, EMRSA15, 18 h
S. aureus EMRSA-16 = assay: Broth dilution MIC against EMRSA-16; format: cell-based; settings: Staphylococcus aureus, EMRSA16, 18 h
[4] = test system: M. bovis BCG (ATCC 35734); assay: microbe, parasite or virus in culture; format: cell-based; settings: Mycobacterium tuberculosis variant bovis BCG, 336 h, read-out: MIC M. bovis BCG

T1 sequence (P9WJL3 whole entry): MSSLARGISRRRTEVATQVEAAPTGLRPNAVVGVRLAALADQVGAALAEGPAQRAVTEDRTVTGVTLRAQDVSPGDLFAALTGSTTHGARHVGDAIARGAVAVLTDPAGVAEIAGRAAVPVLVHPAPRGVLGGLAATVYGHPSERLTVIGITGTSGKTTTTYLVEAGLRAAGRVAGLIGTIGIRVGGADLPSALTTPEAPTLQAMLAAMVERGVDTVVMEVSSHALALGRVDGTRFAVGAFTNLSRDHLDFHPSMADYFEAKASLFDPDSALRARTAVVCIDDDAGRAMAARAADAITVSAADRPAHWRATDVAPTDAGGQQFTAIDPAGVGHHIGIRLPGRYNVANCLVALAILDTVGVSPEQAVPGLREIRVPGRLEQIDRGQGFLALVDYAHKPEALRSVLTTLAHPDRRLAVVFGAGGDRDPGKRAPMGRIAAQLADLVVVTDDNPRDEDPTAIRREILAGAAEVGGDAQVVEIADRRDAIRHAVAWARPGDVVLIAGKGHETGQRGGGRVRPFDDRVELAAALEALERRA

Structure (SMILES) | Metabolic active MRC-5 cells (%) ([1]; 10 µM) | Metabolic active MRC-5 cells (%) ([1]; 30 µM) | Metabolic active MRC-5 cells (%) ([1]; 60 µM) | Metabolic active MRC-5 cells (%) ([1]; 100 µM) | MIC (M. phlei (ATCC 11758)) | MIC [2] | MIC (M. smegmatis mc^2155) | MIC (M. fortuitum (ATCC 6841)) | melting point [°C] | pIC50 [3] | MIC (S. aureus EMRSA-15) | MIC (S. aureus EMRSA-16) | MIC [4] | toxicity to MRC-5 cell line (in words) ([1]; at / up to 100 µM)
CCCCCCCCC#Cc1cc(=O)c2ccccc2n1CC [Compound 8g, 1-Ethyl-2-(1'-decynyl)-4(1H)-quinolone] | 101 ± 0.97 | 98.7 ± 2.97 | 56.5 ± 2.03 | 12.1 ± 4.79 | 4 µg/mL and 12.9 µM | 2 µg/mL and 6.5 µM | 4 µg/mL and 12.9 µM | 8 µg/mL and 25.9 µM |  |  |  |  |  | 
CCCCCCCCC#CCCc1cc(=O)c2ccccc2n1C [Compound 8j, 1-Methyl-2-(3'-dodecynyl)-4(1H)-quinolone] | 97.6 ± 1.03 | 96.7 ± 1.49 | 95.1 ± 0.81 | 95.84 ± 0.96 |  | 4 µg/mL and 12.4 µM |  |  |  |  |  |  |  | 
CCCCCCCCC#CCCc1cc(=O)c2ccccc2n1CC [Compound 8k, 1-Ethyl-2-(3'-dodecynyl)-4(1H)-quinolone] | 97.6 ± 1.69 | 95.1 ± 1.04 | 94.7 ± 0.92 | 74.8 ± 1.99 |  | 4 µg/mL and 11.9 µM |  |  | 66 to 68 |  |  |  |  | 
CCCCCCCCCCC#CCCc1cc(=O)c2ccccc2n1C [Compound 8o, 1-Methyl-2-(3'-tetradecynyl)-4(1H)-quinolone] | 100 ± 0.73 | 97.9 ± 0.88 | 95.8 ± 2.54 | 90.7 ± 3.48 | 2 µg/mL and 5.7 µM | 2 µg/mL and 5.7 µM | 1 µg/mL and 2.8 µM | 2 µg/mL and 5.7 µM | 43 to 45 | 3.11 | 8 µg/mL and 22.8 µM | 8 µg/mL and 22.8 µM | 25 µg/mL and 71.2 µM | 
CCCCCCCCCCC#CCCc1cc(=O)c2ccccc2n1CC [Compound 8p, 1-Ethyl-2-(3'-tetradecynyl)-4(1H)-quinolone] | 97.3 ± 1.37 | 95.4 ± 0.76 | 93.3 ± 1.13 | 8.75 ± 9.35 | 2 µg/mL and 5.5 µM | 1 µg/mL and 2.7 µM | 1 µg/mL and 2.7 µM | 4 µg/mL and 10.9 µM | 74 to 76 |  |  |  |  | 
CCCCCCCCCCC#CCCc1cc(=O)c2ccccc2n1CCC [Compound 8q, 1-(n-Propyl)-2-(3'-tetradecynyl)-4(1H)-quinolone] | 92.7 ± 4.62 | 67.9 ± 2.65 | 19.8 ± 9.85 | 0.2 ± 0.09 | 2 µg/mL and 5.3 µM | 1 µg/mL and 2.6 µM | 1 µg/mL and 2.6 µM | 2 µg/mL and 5.3 µM |  | 3.70 | 2 µg/mL and 5.3 µM | 128 µg/mL and 338 µM | 25 µg/mL and 66 µM | 
CCCCCCCCCCCCC#Cc1cc(=O)c2ccccc2n1C [Compound 8r, 1-Methyl-2-(1′-tetradecynyl)-4(1H)-quinolone] | 99.7 ± 2.03 | 98.1 ± 1.65 | 97.1 ± 1.69 | 95.7 ± 1.14 | 2 µg/mL and 5.7 µM | 0.5 µg/mL (≈ 1.42 µM) | 1 µg/mL and 2.8 µM | 0.5 µg/mL and 1.5 µM | 41 to 43 | 3.20 | 16 µg/mL and 45.6 µM | 128 µg/mL and 365 µM | 25 µg/mL and 71.2 µM | devoid of toxicity
CCCCCCCCCCCCC#CCCc1cc(=O)c2ccccc2n1C [Compound 8s, 1-Methyl-2-(3′-hexadecynyl)-4(1H)-quinolone] | 93.9 ± 0.61 | 92.2 ± 0.70 | 58.9 ± 3.65 | 41.5 ± 9.49 |  | 128 µg/mL and 338 µM |  |  | 58 to 61 |  |  |  |  | 
CCCCCCCCCCCCCC#Cc1cc(=O)c2ccccc2n1C [Compound 8t, 1-Methyl-2-(1'-pentadecynyl)-4(1H)-quinolone] | 100 ± 1.01 | 100 ± 1.38 | 98.8 ± 1.28 | 93.8 ± 0.96 |  | 128 µg/mL and 351 µM |  |  |  |  |  |  |  | 
O=c1cc(/C=C/CCCCCCCCCCBr)n(C2CC2)c2ccccc12 [Compound 18a, 1-Cyclopropyl-2-[(E)-12-bromodec-1'-enyl]-4(1H)-quinolone] |  |  |  |  |  | 8 µg/mL and 18.6 µM |  |  | 85 to 87 |  |  |  |  | 
O=c1cc(/C=C/CCCCCCCCCCCBr)n(C2CC2)c2ccccc12 [Compound 18b, 1-Cyclopropyl-2-[(E)-13-bromotridec-1'-enyl)-4(1H)-quinolone] |  |  |  |  |  | 8 µg/mL and 18.1 µM |  |  | 61 to 63 |  |  |  |  | 
Cn1c(/C=C/CCCCCCCCCCBr)cc(=O)c2ccccc21 [Compound 19a, 1-Methyl-2-[(E)-12-bromodec-1'-enyl]-4(1H)-quinolone] |  |  |  |  | 1 µg/mL and 2.5 µM | 0.5 µg/mL (≈ 1.24 µM) | 1 µg/mL and 2.5 µM | 1 µg/mL and 2.5 µM |  |  |  |  |  | 
Cn1c(/C=C/CCCCCCCCCCCBr)cc(=O)c2ccccc21 [Compound 19b, 1-Methyl-2-[(E)-13-bromotridec-1'-enyl)-4(1H)-quinolone] |  |  |  |  | 1 µg/mL and 2.4 µM | 0.5 µg/mL (≈ 1.19 µM) | 1 µg/mL and 2.4 µM | 1 µg/mL and 2.4 µM |  |  |  |  |  | 
CCCCCCCCCCC/C=C/c1cc(=O)c2ccccc2n1C1CC1 [Compound 22a, 1-Cyclopropyl-2-[(E)-1′-tridecenyl]-4(1H)-quinolone] |  |  |  |  |  | 128 µg/mL and 351 µM |  |  | 86 to 88 |  |  |  |  | 
CCCCCCCCCCCC/C=C/c1cc(=O)c2ccccc2n1C1CC1 [Compound 22b, 1-Cyclopropyl-2-[(E)-1′-tetradecenyl]-4(1H)-quinolone] |  |  |  |  |  | 128 µg/mL and 338 µM |  |  | 96 to 98 |  |  |  |  | 
CC[C@@H](CO)NCCN[C@@H](CC)CO [Ethambutol, reference compound] |  |  |  |  | 4 µg/mL and 19.6 µM | 2 µg/mL and 9.8 µM | 4 µg/mL and 19.6 µM | 8 µg/mL and 39.2 µM |  |  |  |  |  | 
NNC(=O)c1ccncc1 [Isoniazid, reference compound] |  |  |  |  | 8 µg/mL and 58.3 µM | 4 µg/mL and 29.2 µM | 4 µg/mL and 29.2 µM | 2 µg/mL and 14.6 µM |  |  |  |  | 0.1 µg/mL and 0.7 µM | 
CCn1cc(C(=O)O)c(=O)c2cc(F)c(N3CCNCC3)cc21 [Norfloxacin, reference compound] |  |  |  |  |  |  |  |  |  |  | 0.5 µg/mL and 1.6 µM | 128 µg/mL and 401 µM |  | 
CN(C)[C@@H]1C(O)=C(C(N)=O)C(=O)[C@@]2(O)C(O)=C3C(=O)c4c(O)cccc4[C@@](C)(O)[C@H]3C[C@@H]12 [Tetracycline, reference compound] |  |  |  |  |  |  |  |  |  |  | 0.25 µg/mL and 0.6 µM | 0.25 µg/mL and 0.6 µM |  | 
